In the assay the test system is P. falciparum K1 (strain resistant to chloroquine and pyrimethamine), erythrocytic stages. The assay can be described thus: Plasmodium falciparum in vitro assay, [3H] hypoxanthine incorporation. It counts as cell-based. The note with it: Plasmodium falciparum, K1, P. falciparum strain K1; [3H] hypoxanthine incorporation; read-out: IC50 (nM) on K1. The method in brief:
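K1 strain parasites grown in human red cells, 2.5% haematocrit, 0.3% parasitaemia, 37 °C, 4% CO2/3% O2; compounds in seven serial doubling dilutions.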

What is called IC50 is the midpoint of a concentration-inhibition curve. As to `CC(=O)N1CCN(c2ccc(CN(C(=O)C=Cc3ccc(C(F)(F)F)cc3)[C@@H](Cc3ccccc3)C(=O)N(C)CCOCc3ccncc3)cc2)CC1` [Example 205, (S)-N-[4-(4-Acetyl-piperazin-1-yl)-benzyl]-N-(1-{methyl-[2-(pyridin-4-ylmethoxy)-ethyl]-carbamoyl}-2-phenyl-ethyl)-3-(4-trifluoromethyl-phenyl)-acrylamide], the concentration for half-maximal inhibition (IC50) turned out to be 16 nM.
For `CC(=O)N1CCN(c2ccc(CN(C(=O)C=Cc3ccc(C(F)(F)F)cc3)[C@@H](Cc3ccccc3)C(=O)N(C)CCOCc3ccc(C(F)(F)F)o3)cc2)CC1` [Example 206, (S)-N-[4-(4-Acetyl-piperazin-1-yl)-benzyl]-N-(1-{methyl-[2-(5-trifluoromethyl-furan-2-ylmethoxy)-ethyl]-carbamoyl}-2-phenyl-ethyl)-3-(4-trifluoromethyl-phenyl)-acrylamide] the value was 81 nM; for `CC(=O)N1CCN(c2ccc(CN(C(=O)C=Cc3ccc(C(F)(F)F)cc3)[C@@H](Cc3ccccc3)C(=O)N(C)CCOCC3CC3)cc2)CC1` [Example 207, (S)-N-[4-(4-Acetyl-piperazin-1-yl)-benzyl]-N-{1-[(2-cyclopropylmethoxy-ethyl)-methyl-carbamoyl]-2-phenyl-ethyl}-3-(4-trifluoromethyl-phenyl)-acrylamide], 40 nM; for `CC(=O)N1CCN(c2ccc(CN(C(=O)C=Cc3ccc(C(F)(F)F)nc3)[C@@H](Cc3ccccc3)C(=O)N(C)CCOCc3ccncc3)cc2)CC1` [Example 208, (S)-N-[4-(4-Acetyl-piperazin-1-yl)-benzyl]-N-(1-{methyl-[2-(pyridin-4-ylmethoxy)-ethyl]-carbamoyl}-2-phenyl-ethyl)-3-(6-trifluoromethyl-pyridin-3-yl)-acrylamide], 57 nM.
As for `CC(=O)N1CCN(c2ccc(CN(C(=O)C=Cc3ccc(C(F)(F)F)nc3)[C@@H](Cc3ccccc3)C(=O)N(C)CCOCc3cc(C)on3)cc2)CC1` [Example 209, (S)-N-[4-(4-Acetyl-piperazin-1-yl)-benzyl]-N-(1-{methyl-[2-(5-methyl-isoxazol-3-ylmethoxy)-ethyl]-carbamoyl}-2-phenyl-ethyl)-3-(6-trifluoromethyl-pyridin-3-yl)-acrylamide], the IC50 stood at 31 nM.
For `CC(=O)N1CCN(c2ccc(CN(C(=O)C=Cc3ccc(C(F)(F)F)cc3)[C@@H](Cc3ccccc3)C(=O)N(C)CCOCCOCc3ccccc3)cc2)CC1` [Example 210, (S)-N-[4-(4-Acetyl-piperazin-1-yl)-benzyl]-N-(1-{[2-(2-benzyloxy-ethoxy)-ethyl]-methyl-carbamoyl}-2-phenyl-ethyl)-3-(4-trifluoromethyl-phenyl)-acrylamide] the value was 28 nM; for `CC(=O)N1CCN(c2ccc(CN(C(=O)C=Cc3ccc(C(F)(F)F)cc3)[C@@H](Cc3ccccc3)C(=O)N(C)CCOCC#N)cc2)CC1` [Example 211, (S)-N-[4-(4-Acetyl-piperazin-1-yl)-benzyl]-N-{1-[(2-cyanomethoxy-ethyl)-methyl-carbamoyl]-2-phenyl-ethyl}-3-(4-trifluoromethyl-phenyl)-acrylamide], 18 nM; for `C=CCOCCN(C)C(=O)[C@H](Cc1ccccc1)N(Cc1ccc(N2CCN(C(C)=O)CC2)cc1)C(=O)C=Cc1ccc(C(F)(F)F)cc1` [Example 212, (S)-N-[4-(4-Acetyl-piperazin-1-yl)-benzyl]-N-{1-[(2-allyloxy-ethyl)-methyl-carbamoyl]-2-phenyl-ethyl}-3-(4-trifluoromethyl-phenyl)-acrylamide], 20 nM.
Take `CC(=O)N1CCN(c2ccc(CN(C(=O)C=Cc3ccc(C(F)(F)F)cc3)[C@@H](Cc3ccccc3)C(=O)N(C)CCOCC(N)=O)cc2)CC1` [Example 213, (S)-N-[4-(4-Acetyl-piperazin-1-yl)-benzyl]-N-{1-[(2-carbamoylmethoxy-ethyl)-methyl-carbamoyl]-2-phenyl-ethyl}-3-(4-trifluoromethyl-phenyl)-acrylamide]: the half-maximal inhibitory concentration (IC50) worked out at 72 nM.
Regarding `CC(=O)N1CCN(c2ccc(CN(C(=O)C=Cc3ccc(C(F)(F)F)cc3)[C@@H](Cc3ccccc3)C(=O)N(C)CCOCc3ccccn3)cc2)CC1` [Example 214, (S)-N-[4-(4-Acetyl-piperazin-1-yl)-benzyl]-N-(1-{methyl-[2-(pyridin-2-ylmethoxy)-ethyl]-carbamoyl}-2-phenyl-ethyl)-3-(4-trifluoromethyl-phenyl)-acrylamide], the IC50 worked out at 23 nM.
For `CC(=O)N1CCN(c2ccc(CN(C(=O)C=Cc3ccc(C(F)(F)F)nc3)[C@@H](Cc3ccccc3)C(=O)N(C)CCOCc3ccccn3)cc2)CC1` [Example 215, (S)-N-[4-(4-Acetyl-piperazin-1-yl)-benzyl]-N-(1-{methyl-[2-(pyridin-2-ylmethoxy)-ethyl]-carbamoyl}-2-phenyl-ethyl)-3-(6-trifluoromethyl-pyridin-3-yl)-acrylamide] the value was 86 nM; for `CC(=O)N1CCN(c2ccc(CN(C(=O)C=Cc3ccc(C(F)(F)F)nc3)[C@@H](Cc3ccccc3)C(=O)N(C)CCOCCOCc3ccccc3)cc2)CC1` [Example 216, (S)-N-[4-(4-Acetyl-piperazin-1-yl)-benzyl]-N-(1-{[2-(2-benzyloxy-ethoxy)-ethyl]-methyl-carbamoyl}-2-phenyl-ethyl)-3-(6-trifluoromethyl-pyridin-3-yl)-acrylamide], 94 nM; for `CC(=O)N1CCN(c2ccc(CN(C(=O)C=Cc3ccc(C(F)(F)F)nc3)[C@@H](Cc3ccccc3)C(=O)N(C)CCOCC#N)cc2)CC1` [Example 217, (S)-N-[4-(4-Acetyl-piperazin-1-yl)-benzyl]-N-{1-[(2-cyanomethoxy-ethyl)-methyl-carbamoyl]-2-phenyl-ethyl}-3-(6-trifluoromethyl-pyridin-3-yl)-acrylamide], 32 nM.
In the case of `C=CCOCCN(C)C(=O)[C@H](Cc1ccccc1)N(Cc1ccc(N2CCN(C(C)=O)CC2)cc1)C(=O)C=Cc1ccc(C(F)(F)F)nc1` [Example 218, (S)-N-[4-(4-Acetyl-piperazin-1-yl)-benzyl]-N-{1-[(2-allyloxy-ethyl)-methyl-carbamoyl]-2-phenyl-ethyl}-3-(6-trifluoromethyl-pyridin-3-yl)-acrylamide], the IC50 stood at 40 nM.
For `CN(CCN(C)C(=O)[C@H](Cc1ccccc1)N(Cc1ccc(-c2ccccn2)cc1)C(=O)C=Cc1ccc(C(F)(F)F)cc1)Cc1ccc(Br)o1` [Example 219, (S)-N-[1-({2-[(5-Bromo-furan-2-ylmethyl)-methyl-amino]-ethyl}-methyl-carbamoyl)-2-phenyl-ethyl]-N-(4-pyridin-2-yl-benzyl)-3-(4-trifluoromethyl-phenyl)-acrylamide] the value was 52 nM.
In the case of `CN(CCN(C)C(=O)[C@H](Cc1ccccc1)N(Cc1ccc(-c2ccccn2)cc1)C(=O)C=Cc1ccc(C(F)(F)F)cc1)Cc1ccccc1` [Example 220, (S)-N-(1-{[2-(Benzyl-methyl-amino)-ethyl]-methyl-carbamoyl}-2-phenyl-ethyl)-N-(4-pyridin-2-yl-benzyl)-3-(4-trifluoromethyl-phenyl)-acrylamide], the IC50 came to 29 nM.
Consider `CN(CCN(C)C(=O)[C@H](Cc1ccccc1)N(Cc1ccc(-c2ccccn2)cc1)C(=O)C=Cc1ccc(C(F)(F)F)cc1)Cc1ccc(Cl)nc1` [Example 221, (S)-N-[1-({2-[(6-Chloro-pyridin-3-ylmethyl)-methyl-amino]-ethyl}-methyl-carbamoyl)-2-phenyl-ethyl]-N-(4-pyridin-2-yl-benzyl)-3-(4-trifluoromethyl-phenyl)-acrylamide], for which the half-inhibitory concentration (IC50) amounted to 20 nM.
With `CN(CCN(C)C(=O)[C@H](Cc1ccccc1)N(Cc1ccc(-c2ccccn2)cc1)C(=O)C=Cc1ccc(C(F)(F)F)cc1)Cc1ccoc1` [Example 222, (S)-N-(1-{[2-(Furan-3-ylmethyl-methyl-amino)-ethyl]-methyl-carbamoyl}-2-phenyl-ethyl)-N-(4-pyridin-2-yl-benzyl)-3-(4-trifluoromethyl-phenyl)-acrylamide], the IC50 was 13 nM.
For `CN(CCN(C)C(=O)[C@H](Cc1ccccc1)N(Cc1ccc(-c2ccccn2)cc1)C(=O)C=Cc1ccc(C(F)(F)F)cc1)Cc1ccco1` [Example 223, (S)-N-(1-{[2-(Furan-2-ylmethyl-methyl-amino)-ethyl]-methyl-carbamoyl}-2-phenyl-ethyl)-N-(4-pyridin-2-yl-benzyl)-3-(4-trifluoromethyl-phenyl)-acrylamide], the IC50 was 25 nM.
For `CN(CCN(C)C(=O)[C@H](Cc1ccccc1)N(Cc1ccc(-c2ccccn2)cc1)C(=O)C=Cc1ccc(C(F)(F)F)cc1)Cc1ccccn1` [Example 224, (S)-N-(1-{Methyl-[2-(methyl-pyridin-2-ylmethyl-amino)-ethyl]-carbamoyl}-2-phenyl-ethyl)-N-(4-pyridin-2-yl-benzyl)-3-(4-trifluoromethyl-phenyl)-acrylamide], the half-inhibitory concentration (IC50) was determined as 29 nM.
Regarding `CN(CCN(C)C(=O)[C@H](Cc1ccccc1)N(Cc1ccc(-c2ccccn2)cc1)C(=O)C=Cc1ccc(C(F)(F)F)cc1)Cc1cccs1` [Example 225, (S)-N-(1-{Methyl-[2-(methyl-thiophen-2-ylmethyl-amino)-ethyl]-carbamoyl}-2-phenyl-ethyl)-N-(4-pyridin-2-yl-benzyl)-3-(4-trifluoromethyl-phenyl)-acrylamide], the IC50 is 20 nM.
As to `CN(CCN(C)C(=O)[C@H](Cc1ccccc1)N(Cc1ccc(-c2ccccn2)cc1)C(=O)C=Cc1ccc(C(F)(F)F)cc1)Cc1ccc(Cl)s1` [Example 226, (S)-N-[1-({2-[(5-Chloro-thiophen-2-ylmethyl)-methyl-amino]-ethyl}-methyl-carbamoyl)-2-phenyl-ethyl]-N-(4-pyridin-2-yl-benzyl)-3-(4-trifluoromethyl-phenyl)-acrylamide], the IC50 was found to be 75 nM.
As to `CN(CCN(C)C(=O)[C@H](Cc1ccccc1)N(Cc1ccc(-c2ccccn2)cc1)C(=O)C=Cc1ccc(C(F)(F)F)cc1)Cc1ccc(Br)nc1` [Example 227, (S)-N-[1-({2-[(6-Bromo-pyridin-3-ylmethyl)-methyl-amino]-ethyl}-methyl-carbamoyl)-2-phenyl-ethyl]-N-(4-pyridin-2-yl-benzyl)-3-(4-trifluoromethyl-phenyl)-acrylamide], the IC50 was determined as 18 nM.

Values taken from patent US20110224210A1, “NOVEL BIS-AMIDES AS ANTI-MALARIAL AGENTS” (priority 2008, published 2011).
